ChEMBL document CHEMBL3632579, “Hybrids from 4-anilinoquinazoline and hydroxamic acid as dual inhibitors of vascular endothelial growth factor receptor-2 and histone deacetylase” (Bioorg Med Chem Lett, 2015)

Columns and labels:
[1] = target: Vascular endothelial growth factor receptor 2 (Homo sapiens, UniProt P35968); test: Inhibition VEGFR2 (unknown origin) for 30 mins by ELISA
Histone deacetylase = test: Inhibition of human HDAC in HeLa cell nuclear extract by fluorometric assay using Fluor de Lys substrate; type: protein assay
MCF7 = test: Antiproliferative activity against human MCF7 cells after 48 hrs by MTT assay; type: functional, cell-based; conditions: MCF7, 48 h
Histone deacetylase 1 = Histone deacetylase 1 (Homo sapiens, UniProt Q13547); test: Inhibition of human recombinant HDAC1 by fluorometric assay using Fluor de Lys substrate
Chain of Histone deacetylase 1 (Q13547 whole entry): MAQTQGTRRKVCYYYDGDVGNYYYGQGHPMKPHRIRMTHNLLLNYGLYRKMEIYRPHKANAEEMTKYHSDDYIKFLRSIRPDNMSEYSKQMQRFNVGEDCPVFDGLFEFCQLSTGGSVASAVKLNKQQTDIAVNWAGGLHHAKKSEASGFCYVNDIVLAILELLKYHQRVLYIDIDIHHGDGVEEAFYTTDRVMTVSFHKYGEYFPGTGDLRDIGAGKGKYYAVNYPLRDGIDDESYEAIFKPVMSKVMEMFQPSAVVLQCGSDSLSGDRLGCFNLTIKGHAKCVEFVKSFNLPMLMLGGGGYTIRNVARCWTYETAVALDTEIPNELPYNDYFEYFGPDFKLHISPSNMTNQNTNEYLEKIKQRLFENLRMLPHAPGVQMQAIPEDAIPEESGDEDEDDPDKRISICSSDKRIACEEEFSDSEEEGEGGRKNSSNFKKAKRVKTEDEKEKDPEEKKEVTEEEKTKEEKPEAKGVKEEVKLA

HepG2 = test: Antiproliferative activity against human HepG2 cells after 48 hrs by MTT assay; type: functional, cell-based; conditions: HepG2, 48 h
A549 = test: Antiproliferative activity against human A549 cells after 48 hrs by MTT assay; type: functional, cell-based; conditions: A549, 48 h
HCT-116 = test: Antiproliferative activity against human HCT116 cells after 48 hrs by MTT assay; type: functional, cell-based; conditions: HCT-116, 48 h
Histone deacetylase 8 = target: T1, Histone deacetylase 8 (Homo sapiens, UniProt Q9BY41); test: Inhibition of human recombinant HDAC8 by fluorometric assay using Fluor de Lys substrate
T1 sequence (Q9BY41 whole entry): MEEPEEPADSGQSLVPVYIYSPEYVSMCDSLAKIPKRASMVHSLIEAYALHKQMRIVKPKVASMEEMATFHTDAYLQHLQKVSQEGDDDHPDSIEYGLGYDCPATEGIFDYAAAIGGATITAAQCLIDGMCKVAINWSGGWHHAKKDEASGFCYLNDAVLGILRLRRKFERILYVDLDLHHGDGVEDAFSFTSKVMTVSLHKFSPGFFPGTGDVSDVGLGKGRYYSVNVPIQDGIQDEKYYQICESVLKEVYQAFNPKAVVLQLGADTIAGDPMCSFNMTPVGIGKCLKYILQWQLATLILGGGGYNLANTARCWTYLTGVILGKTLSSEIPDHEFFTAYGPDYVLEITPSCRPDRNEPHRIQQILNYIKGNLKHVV

[2] = target: T2, Protein deacetylase HDAC6 (Homo sapiens, UniProt Q9UBN7); test: Inhibition of human recombinant HDAC6 by fluorometric assay using Fluor de Lys substrate
T2 sequence (Q9UBN7 whole entry): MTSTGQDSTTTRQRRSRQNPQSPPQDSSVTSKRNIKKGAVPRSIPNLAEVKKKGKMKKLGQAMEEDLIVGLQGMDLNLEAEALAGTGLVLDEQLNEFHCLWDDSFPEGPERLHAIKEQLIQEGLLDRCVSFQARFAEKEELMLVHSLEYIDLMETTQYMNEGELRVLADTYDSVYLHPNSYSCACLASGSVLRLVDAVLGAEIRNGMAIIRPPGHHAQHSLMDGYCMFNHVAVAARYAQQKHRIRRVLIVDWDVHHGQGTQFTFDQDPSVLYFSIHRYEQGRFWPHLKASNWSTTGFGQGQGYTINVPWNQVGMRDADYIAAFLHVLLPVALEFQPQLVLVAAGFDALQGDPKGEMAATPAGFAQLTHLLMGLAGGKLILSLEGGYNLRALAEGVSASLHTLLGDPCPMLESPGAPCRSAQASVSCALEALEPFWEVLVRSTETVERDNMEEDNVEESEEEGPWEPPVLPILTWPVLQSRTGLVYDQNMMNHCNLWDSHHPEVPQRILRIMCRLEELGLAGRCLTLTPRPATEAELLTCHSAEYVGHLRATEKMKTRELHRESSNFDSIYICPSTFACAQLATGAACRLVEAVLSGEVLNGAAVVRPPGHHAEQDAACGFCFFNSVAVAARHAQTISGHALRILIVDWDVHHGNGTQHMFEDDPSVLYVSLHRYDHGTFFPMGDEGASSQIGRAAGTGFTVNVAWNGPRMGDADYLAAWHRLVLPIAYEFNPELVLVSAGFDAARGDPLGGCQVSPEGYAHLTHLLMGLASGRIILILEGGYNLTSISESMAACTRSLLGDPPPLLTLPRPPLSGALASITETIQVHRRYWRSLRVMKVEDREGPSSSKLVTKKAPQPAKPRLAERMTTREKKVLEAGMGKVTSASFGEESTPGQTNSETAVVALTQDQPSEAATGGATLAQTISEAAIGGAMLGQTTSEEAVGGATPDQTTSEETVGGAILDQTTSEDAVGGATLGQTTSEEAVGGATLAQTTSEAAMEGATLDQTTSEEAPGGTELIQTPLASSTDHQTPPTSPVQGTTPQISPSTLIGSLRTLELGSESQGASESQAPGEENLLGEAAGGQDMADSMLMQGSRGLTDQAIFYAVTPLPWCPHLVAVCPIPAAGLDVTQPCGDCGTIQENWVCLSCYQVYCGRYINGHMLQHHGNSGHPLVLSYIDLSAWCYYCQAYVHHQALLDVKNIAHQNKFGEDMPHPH

Histone deacetylase 2 = Histone deacetylase 2 (Homo sapiens, UniProt Q92769); test: Inhibition of human recombinant HDAC2 by fluorometric assay using Fluor de Lys substrate
Chain of Histone deacetylase 2 (Q92769 whole entry): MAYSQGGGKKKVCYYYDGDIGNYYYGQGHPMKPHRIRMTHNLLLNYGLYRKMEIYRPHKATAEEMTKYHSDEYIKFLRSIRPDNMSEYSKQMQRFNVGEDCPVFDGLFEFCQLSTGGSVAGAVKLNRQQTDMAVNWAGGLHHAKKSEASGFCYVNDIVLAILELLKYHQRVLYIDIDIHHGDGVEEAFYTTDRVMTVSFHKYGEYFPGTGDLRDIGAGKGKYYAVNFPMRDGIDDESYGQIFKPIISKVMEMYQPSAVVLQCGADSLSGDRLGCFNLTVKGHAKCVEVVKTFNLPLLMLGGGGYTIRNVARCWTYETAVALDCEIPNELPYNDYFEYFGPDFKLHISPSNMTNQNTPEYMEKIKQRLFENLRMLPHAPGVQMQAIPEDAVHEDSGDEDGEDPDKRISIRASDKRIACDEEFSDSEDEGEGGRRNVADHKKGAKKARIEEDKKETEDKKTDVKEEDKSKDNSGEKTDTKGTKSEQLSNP

Chain of Vascular endothelial growth factor receptor 2 (P35968 whole entry): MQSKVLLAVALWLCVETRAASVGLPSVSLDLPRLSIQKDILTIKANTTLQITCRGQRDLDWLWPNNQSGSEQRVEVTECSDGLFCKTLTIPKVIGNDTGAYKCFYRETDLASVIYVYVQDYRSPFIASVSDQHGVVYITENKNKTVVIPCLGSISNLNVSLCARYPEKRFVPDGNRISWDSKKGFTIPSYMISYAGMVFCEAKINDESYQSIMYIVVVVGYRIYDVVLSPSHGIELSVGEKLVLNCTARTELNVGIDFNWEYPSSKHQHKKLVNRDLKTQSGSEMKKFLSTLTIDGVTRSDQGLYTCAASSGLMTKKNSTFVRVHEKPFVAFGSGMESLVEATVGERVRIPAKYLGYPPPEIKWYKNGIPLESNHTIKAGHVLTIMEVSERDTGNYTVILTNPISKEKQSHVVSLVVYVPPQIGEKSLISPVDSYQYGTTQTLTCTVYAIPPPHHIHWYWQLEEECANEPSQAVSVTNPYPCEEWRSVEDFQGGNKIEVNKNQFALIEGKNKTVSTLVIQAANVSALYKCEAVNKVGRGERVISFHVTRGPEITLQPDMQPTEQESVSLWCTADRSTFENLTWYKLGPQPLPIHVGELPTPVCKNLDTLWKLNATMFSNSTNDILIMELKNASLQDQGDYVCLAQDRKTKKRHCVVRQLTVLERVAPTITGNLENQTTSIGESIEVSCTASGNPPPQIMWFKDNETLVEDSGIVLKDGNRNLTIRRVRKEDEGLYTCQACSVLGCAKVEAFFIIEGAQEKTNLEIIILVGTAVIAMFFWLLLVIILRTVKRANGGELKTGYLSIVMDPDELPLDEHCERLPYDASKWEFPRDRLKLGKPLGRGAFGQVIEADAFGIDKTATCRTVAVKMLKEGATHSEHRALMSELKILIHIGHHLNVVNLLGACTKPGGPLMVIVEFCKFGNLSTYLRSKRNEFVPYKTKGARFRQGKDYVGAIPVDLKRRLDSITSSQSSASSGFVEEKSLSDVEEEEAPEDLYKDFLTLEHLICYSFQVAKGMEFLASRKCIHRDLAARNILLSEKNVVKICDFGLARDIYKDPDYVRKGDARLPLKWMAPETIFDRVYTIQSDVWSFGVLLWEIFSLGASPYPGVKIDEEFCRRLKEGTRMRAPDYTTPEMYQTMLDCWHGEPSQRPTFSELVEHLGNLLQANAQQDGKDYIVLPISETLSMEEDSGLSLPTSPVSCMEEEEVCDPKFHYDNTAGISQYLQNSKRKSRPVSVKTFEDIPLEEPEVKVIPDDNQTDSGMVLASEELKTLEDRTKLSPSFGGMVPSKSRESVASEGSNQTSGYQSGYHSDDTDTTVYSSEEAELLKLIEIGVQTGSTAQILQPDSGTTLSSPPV

Compound | IC50 [1] [nM] | IC50 (Histone deacetylase) [nM] | IC50 (MCF7) [nM] | further results
COc1cc2ncnc(Nc3cccc(Br)c3)c2cc1OCCC(=O)NO | 625 | 531 | > 100000 | 
COc1cc2ncnc(Nc3cc(Cl)ccc3Cl)c2cc1OCCC(=O)NO | 1260 | 348 | > 100000 | 
COc1cc2ncnc(Nc3cc(Cl)ccc3Cl)c2cc1OCCCC(=O)NO | 2140 | 57 | 44500 | 
COc1cc2ncnc(Nc3cc(Cl)ccc3Cl)c2cc1OCCCCC(=O)NO | 5200 | 21 | 13700 | 
COc1cc2ncnc(Nc3cc(Cl)ccc3Cl)c2cc1OCCCCCC(=O)NO | 2450 | 8.4 | 4000 | 
COc1cc2/c(=N/c3ccc(Br)cc3F)nc[nH]c2cc1OCC1CCN(C)CC1 [VANDETANIB] |  | > 10000 | 18500 | 
O=C(CCCCCCC(=O)Nc1ccccc1)NO [VORINOSTAT] | > 10000 |  |  | 

More lines, in order of falling IC50 [1], values ahead:

IC50 [1] [nM] | IC50 (Histone deacetylase) [nM] | IC50 (MCF7) [nM] | Compound | further results
613 | 17 | 8600 | COc1cc2ncnc(Nc3cccc(Cl)c3)c2cc1OCCCCC(=O)NO | 
501 | 5.4 | 3200 | COc1cc2ncnc(Nc3cccc(Cl)c3)c2cc1OCCCCCC(=O)NO | 
476 | 645 | > 100000 | COc1cc2ncnc(Nc3cccc(Cl)c3)c2cc1OCCC(=O)NO | 
462 | 4.5 | 2800 | COc1cc2ncnc(Nc3cccc(Br)c3)c2cc1OCCCCCC(=O)NO | 
434 | 97 | 68400 | COc1cc2ncnc(Nc3cccc(Br)c3)c2cc1OCCCC(=O)NO | 
415 | 15 | 8500 | COc1cc2ncnc(Nc3cccc(Br)c3)c2cc1OCCCCC(=O)NO | 
370 | 215 | 95000 | COc1cc2ncnc(Nc3ccc(Cl)cc3Cl)c2cc1OCCC(=O)NO | 
352 | 121 | 65200 | COc1cc2ncnc(Nc3cccc(Cl)c3)c2cc1OCCCC(=O)NO | 
138 | 86 | 56800 | COc1cc2ncnc(Nc3ccc(Cl)cc3Cl)c2cc1OCCCC(=O)NO | 
115 | 14 | 6400 | COc1cc2ncnc(Nc3ccc(Cl)cc3Cl)c2cc1OCCCCC(=O)NO | 
84 | 2.8 | 1200 | COc1cc2ncnc(Nc3ccc(Cl)cc3Cl)c2cc1OCCCCCC(=O)NO | IC50 (Histone deacetylase 1): 3.5 nM; IC50 (HepG2): 2700 nM; IC50 (A549): 5400 nM; IC50 (HCT-116): 1800 nM; IC50 (Histone deacetylase 8): 5.2 nM; IC50 [2]: 25.5 nM; IC50 (Histone deacetylase 2): 6.8 nM
